Test results published in patent publication US20080058211A1, “Method and Composition for the Modulation of Toxin Resistance in Plant Cells” (BOARD OF REGENTS, THE UNIVERSITY OF TEXAS SYSTEM, priority 2006, published 2008).

Experiments:
Arabidopsis pollen [1] = experiment: in vitro pollen germination (Arabidopsis); type: cell-based, Arabidopsis thaliana
Procedure: Effects of Extracellular ATPγS and AMPαS on Pollen Germination. Arabidopsis pollen was germinated in pollen germination media (PGM) containing from about zero to about 400 μM ATPγS or AMPαS. […] The method of collection included vortexing flowers in PGM creating a homogenous suspension of pollen from tens to hundreds of flowers. This method caused the release of a small amount of ATP, 2-5 μM into the PGM (data not shown).
The nitric oxide signaling pathway mediates the inhibition of Arabidopsis pollen germination by ATPγS. To examine the downstream effectors involved in the inhibition of Arabidopsis pollen germination by ATPγS, different agonists and antagonists of the known nitric oxide signaling pathway were examined. […] Some of the nitric oxide signaling pathway agonists are water soluble while others are DMSO soluble.
Strains and Growth Conditions. For the experiments related to the nitric oxide-ATP signaling relationship, all Arabidopsis thaliana plants were ecotype Wassilewskija (WS), and Medicago truncatula plants were strain A17. All of the plants were grown in Metro-Mix 200 soil at 24° C. with constant light. In vitro Pollen Germination. Arabidopsis flowers in stage 12-14 (Smyth et al., 1990) or Medicago truncatula flowers in stage F3 (Firnhaber et al., 2005) were collected and vortexed for 1 min in pollen germination media (PGM) (0.01% boric acid, 1 mM MgSO4, 1 mM CaCl2, 1 mM Ca(NO3)2, 5 mM HEPES, 18% Sucrose pH 7.0). The supernatant containing the pollen was collected by pipet, and up to three rounds of vortexing of the same pollen could be pooled together. The pollen suspended in PGM was then added in 10-12 μL drops to 400 μL PGM+1% agar that had been spread as a thin film across a microscope slide. The slides and pollen were then placed into humidity chambers, petri dishes with water saturated kimwipes, and allowed to germinate at 26° C. overnight. Pictures of the germinated pollen were taken with a digital camera attached to a brightfield microscope at 40×. The digital images were scored for the percent of pollen germinated using the AlphaEase software from Alpha Innotech. Pollen with tubes that were shorter than the diameter of the pollen grain were not counted as germinated or non-germinated. The chemicals: ATPγS, AMPαS, N2, 2-O-dibutyrylguanosine 3′:5′-cyclic monophospohate (Dib cGMP), Sildenafil citrate (Viagra™, Pfizer), and 2-(N,N-Diethylamino)-diazenolate 2-oxide (NONOate) were added to the pollen/PGM suspension prior to adding the drops to the PGM+1% agar. The chemicals 1H-[1,2,4]Oxadiazolo[4,3,-a]quinoxalin-1-one (ODQ), N-[4-[1-(3-Aminopropyl)-2-hydroxy-2-nitrosohydrazino]butyl]-1,3-propanediamine (SNAP), and 3-isobutyl-1-methylxanthine (IBMX) were diluted in DMSO and added to the pollen/PGM suspension to a final concentration of DMSO of 0.1%.
For successful pollen germination it was critical for the plants to be healthy and growing in slightly dry soil. To achieve this, the plants were briefly watered 1-2 days before the experiment. As Johnson-Brousseau and McCormick note in their paper (Johnson-Brousseau and McCormick 2004), a solid base is necessary for best in vitro germination of Arabidopsis pollen. The pollen would not germinate in liquid PGM if not overlaid on a solid PGM+1% agar base, and the vortexing and deposition of the pollen/PGM suspension needed to take place in less than 30 minutes or germination rates dropped considerably.

Arabidopsis pollen tubes = experiment: pollen tube elongation; type: cell-based, Arabidopsis thaliana
Procedure: Arabidopsis pollen tube elongation is inhibited by ATPγS. As vesicles fuse to deliver membranes to the tip of elongating pollen tubes, ATP is likely to be released. So ATPγS and AMPαS were investigated for their ability to affect pollen tube elongation. After pollen tubes had begun to grow, from about 0 to about 250 μM ATPγS or AMPαS were added and the subsequent growth rate was determined.
Blocking the nitric oxide signaling pathway reverses the inhibition of Arabidopsis elongation by ATPγS. The inhibition of Arabidopsis pollen tube elongation was also mediated via the NO signaling pathway. Pollen tube growth rates were measured in 0.5% DMSO with and without 100 μM ATPγS.
Measurements of pollen tube elongation. Pollen was germinated as described above except 10 μL drops of pollen/PGM suspension were added to 60 μL of PGM+1% agar that had been deposited into a concavity slide. The pollen was allowed to germinate for 1-2 h, so that pollen tubes were clearly visible. Then 90 μL of PGM or PGM containing ATPγS, AMPαS, DMSO or ODQ was added and a photo was taken using a brightfield microscope at 40×. The coordinates of each photo were noted, so that the exact pollen tubes could be photographed 50-60 minutes later. Using Image J, the pollen tube lengths for individual pollen tubes were measured and a growth rate of μm/min was determined.

[2] = system: nitric oxide levels in elongating Arabidopsis pollen tubes; experiment: nitric oxide in elongating pollen tubes, DAF-2D fluorescence; type: cell-based, Arabidopsis thaliana; details: 125 μM
Procedure: Increased extracellular ATPγS increases nitric oxide production in elongating pollen tubes. In addition to using agonists and antagonists to indirectly study the relationship of eATPγS and nitric oxide, direct measurements of increases in nitric oxide after application of ATPγS and AMPαS were examined. Pollen grains have a high level of auto-fluorescence and the nitric oxide levels in elongating Arabidopsis pollen tubes were determined using DAF-2D, a fluorescent marker for the presence of nitric oxide that was dissolved in DMSO. Elongating pollen tubes were treated with DAF-2D alone or with ATPγS or AMPαS.
Measurements of NO in growing pollen tubes treated with ATPγS or AMPαS. Pollen was germinated as described for the pollen elongation measurements. After 1-2 hours when pollen tubes were clearly visible, 90 μL of PGM containing 5 μM 4,5-diaminofluorescein diacetate (DAF-2D, Molecular Probes) with or without ATPγS or AMPαS was added. […] Using Image J, the average fluorescence for the pollen tubes on each slide and each time point were determined. Since background fluorescence for each slide varied, three areas where no pollen tubes were present were averaged and subtracted from the pollen tube averages for each slide. Pollen tubes with and without nucleotides were compared to each other at similar time points to determine if there was a difference in fluorescence.

Arabidopsis roots = details: concentrations that inhibited gravitropic growth; cited from earlier work
roots = details: in vivo; cited from earlier work
[3] = system: root hairs of Arabidopsis thaliana; details: cited from earlier work
[Ca^2+]cyt = dextran-conjugated calcium green as reporter; cited from earlier work
[4] = system: ATMEKK1, ATMPK3, ATPK19, ERF2, ERF3, ERF4 and ACS6 genes; details: application of 500 μM; cited from earlier work
maize roots = details: concentrations that inhibited gravitropic growth; cited from earlier work
Arabidopsis leaves = details: applied into intercellular spaces of leaves; cited from earlier work
Arabidopsis pollen [5] = details: cited from earlier work
root hairs = details: cited from earlier work
LOX2, ACS6, PAL1 = details: cited from earlier work
[6] = system: [Ca^2+]cyt in excised roots; details: cited from earlier work
[7] = system: [Ca^2+]cyt in Arabidopsis seedlings; details: Arabidopsis seedlings (Jeter et al., 2004); cited from earlier work
[8] = system: Medicago truncatula pollen; experiment: in vitro pollen germination (Medicago); type: cell-based
Procedure: To determine if the affects of ATPγS on pollen germination was specific to Arabidopsis or a more generalized phenomenon, Medicago truncatula was also examined.
Strains and Growth Conditions. For the experiments related to the nitric oxide-ATP signaling relationship, all Arabidopsis thaliana plants were ecotype Wassilewskija (WS), and Medicago truncatula plants were strain A17. All of the plants were grown in Metro-Mix 200 soil at 24° C. with constant light. In vitro Pollen Germination. Arabidopsis flowers in stage 12-14 (Smyth et al., 1990) or Medicago truncatula flowers in stage F3 (Firnhaber et al., 2005) were collected and vortexed for 1 min in pollen germination media (PGM) (0.01% boric acid, 1 mM MgSO4, 1 mM CaCl2, 1 mM Ca(NO3)2, 5 mM HEPES, 18% Sucrose pH 7.0). The supernatant containing the pollen was collected by pipet, and up to three rounds of vortexing of the same pollen could be pooled together. The pollen suspended in PGM was then added in 10-12 μL drops to 400 μL PGM+1% agar that had been spread as a thin film across a microscope slide. […] The digital images were scored for the percent of pollen germinated using the AlphaEase software from Alpha Innotech. Pollen with tubes that were shorter than the diameter of the pollen grain were not counted as germinated or non-germinated. […]

Δ[Ca^2+]cyt = details: co-application with OGA; cited from earlier work
[9] = PGM with about zero to about 400 μM

Nc1ncnc2c1ncn2[C@@H]1O[C@H](COP(O)(O)=S)[C@@H](O)[C@H]1O [AMPαS]
agonist of pollen responses (Arabidopsis pollen [1]): is not | percent of germinated pollen (Arabidopsis pollen [1]; [9]): did not significantly change | effect on pollen tube elongation rates (Arabidopsis pollen tubes; up to about 250 μM): no significant effect | DAF-2D fluorescence [2]: did not significantly change

Nc1ncnc2c1ncn2[C@@H]1O[C@H](COP(=O)(O)OP(=O)(O)OP(=O)(O)O)[C@@H](O)[C@H]1O [ATP]
auxin transport (Arabidopsis roots): inhibited auxin transport | concentration that could inhibit the straight growth of roots (roots): 3 mM | induction of membrane depolarization ([3]; applied nucleotide or phosphate): induced large depolarizations | EC50 ([3]; dose-response studies, read-out: half-maximal depolarization): ~400 µM | change in [Ca2+]cyt ([Ca^2+]cyt): no change | abundance of mRNAs (MAP kinases, ERF2, ERF3, ERF4, ACS6) [4]: induced an increased abundance | auxin transport (maize roots): inhibited auxin transport | concentration sufficient to induce significant superoxide production (Arabidopsis leaves): 500 nM | concentration shown to affect pollen germination (Arabidopsis pollen [5]; Steinenbrunner et al., 2003): 1 to 2 mM | increase in root hair growth (root hairs): not | message abundance for PAL1 (LOX2, ACS6, PAL1): increased | expression of LOX2 and ACS6 (LOX2, ACS6, PAL1; micromolar concentrations that induced superoxide production): up-regulated | increase in [Ca2+]cyt ([6]; 300 nM ATP, excised roots, 10 mM CaCl2, in less than about 10 seconds): 2 fold | [Ca2+]cyt after treatment ([6]; 1 μM ATP, from ca. 100 nM): over 400 nM

Nc1ncnc2c1ncn2[C@@H]1O[C@H](COP(=O)(O)OP(=O)(O)OP(O)(O)=S)[C@@H](O)[C@H]1O [ATPγS]
concentration that could inhibit the straight growth of roots (roots): 0.3 mM | concentrations needed to induce increases in [Ca2+]cyt [7]: 100 to 200 µM | inhibition of pollen germination (Arabidopsis pollen [1]; 50 μM, 0.1% DMSO): inhibits | inhibition of pollen germination (Arabidopsis pollen [1]; 50 μM, series with water-soluble agonists): not inhibitory | inhibition of pollen germination (Arabidopsis pollen [1]; 100 μM, 0.1% DMSO): does not inhibit | inhibition of pollen germination (Arabidopsis pollen [1]; 100 μM, series with water-soluble agonists): inhibitory | concentration from which the pollen germination rate significantly decreased (Arabidopsis pollen [1]; [9]): about 100 μM | concentrations required for the responses of pollen (Arabidopsis pollen [1]; pollen germination and growth): 100 to 200 µM | concentration that significantly inhibited pollen tube elongation (Arabidopsis pollen tubes; about 0 to about 250 μM added after tubes had begun to grow): more than 150 μM | concentration from which pollen germination rates decrease [8]: 200 µM | DAF-2D fluorescence [2]: significantly increased | pollen germination (Arabidopsis pollen [5]; wild-type pollen, μM levels): inhibits pollen germination | effect on Δ[Ca2+]cyt together with OGA (Δ[Ca^2+]cyt): mutually enhanced
